Test results taken from paper PMC3887211, “Automethylation Activities within the Mixed Lineage Leukemia-1 (MLL1) Core Complex Reveal Evidence Supporting a “Two-active Site” Model for Multiple Histone H3 Lysine 4 Methylation” (The Journal of Biological Chemistry, 2013).

Legend:
MBP-Trithorax SET domain = target: T1, MBP-Trithorax SET domain (Drosophila melanogaster, UniProt P20659); assay: [3H]methyl transfer (automethylation and H3 methylation), SDS-PAGE fluorography; assay type: biochemical; conditions: labelled compound; with or without histone H3 peptide (1-20); pH 8.5, 15 °C
T1 construct: gene trx; SET domain as MBP fusion from E. coli
T1 sequence (P20659 3588-3726 limits assumed): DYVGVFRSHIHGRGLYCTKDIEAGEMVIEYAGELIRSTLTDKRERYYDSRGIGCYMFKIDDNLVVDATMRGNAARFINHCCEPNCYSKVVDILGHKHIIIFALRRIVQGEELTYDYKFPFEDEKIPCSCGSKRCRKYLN

[1] = target: T2, MLL1 core complex (MWRAD) (Homo sapiens, UniProt Q03164); conditions: labelled compound; no histone H3; pH 8.5, 15 °C; intra-complex methylation of Ash2L by MLL1 SET domain
T2 construct: gene KMT2A
T2 sequence (Q9C005 whole entry, the tested form may be a part): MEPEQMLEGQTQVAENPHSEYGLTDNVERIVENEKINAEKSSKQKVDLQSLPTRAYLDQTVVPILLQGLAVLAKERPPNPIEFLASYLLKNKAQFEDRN
T2 sequence (Q9UBL3 whole entry, further chain, the tested form may be a part): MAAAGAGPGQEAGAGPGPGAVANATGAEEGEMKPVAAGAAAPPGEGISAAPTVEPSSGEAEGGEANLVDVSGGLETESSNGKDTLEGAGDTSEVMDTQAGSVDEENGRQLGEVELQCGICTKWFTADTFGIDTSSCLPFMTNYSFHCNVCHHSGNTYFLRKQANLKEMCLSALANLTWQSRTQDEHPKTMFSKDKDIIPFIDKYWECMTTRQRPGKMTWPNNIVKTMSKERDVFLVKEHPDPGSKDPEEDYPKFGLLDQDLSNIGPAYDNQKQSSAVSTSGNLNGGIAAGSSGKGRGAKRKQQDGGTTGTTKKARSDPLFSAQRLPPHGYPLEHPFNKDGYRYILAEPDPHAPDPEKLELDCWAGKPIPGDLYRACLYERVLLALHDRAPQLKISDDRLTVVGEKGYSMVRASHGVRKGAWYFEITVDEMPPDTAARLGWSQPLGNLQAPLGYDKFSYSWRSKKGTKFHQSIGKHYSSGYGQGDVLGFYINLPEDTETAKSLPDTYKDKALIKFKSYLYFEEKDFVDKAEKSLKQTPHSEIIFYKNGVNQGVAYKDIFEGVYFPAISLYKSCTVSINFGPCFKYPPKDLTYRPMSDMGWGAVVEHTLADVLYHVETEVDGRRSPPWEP
T2 sequence (Q03164 3745-3969): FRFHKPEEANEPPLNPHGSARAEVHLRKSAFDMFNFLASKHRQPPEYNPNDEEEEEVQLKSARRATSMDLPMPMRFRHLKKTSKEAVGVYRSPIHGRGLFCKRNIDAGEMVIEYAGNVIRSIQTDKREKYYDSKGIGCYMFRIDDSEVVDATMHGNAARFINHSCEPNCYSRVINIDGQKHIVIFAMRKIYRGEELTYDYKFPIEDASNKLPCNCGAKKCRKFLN
T2 sequence (Q15291 whole entry, further chain, the tested form may be a part): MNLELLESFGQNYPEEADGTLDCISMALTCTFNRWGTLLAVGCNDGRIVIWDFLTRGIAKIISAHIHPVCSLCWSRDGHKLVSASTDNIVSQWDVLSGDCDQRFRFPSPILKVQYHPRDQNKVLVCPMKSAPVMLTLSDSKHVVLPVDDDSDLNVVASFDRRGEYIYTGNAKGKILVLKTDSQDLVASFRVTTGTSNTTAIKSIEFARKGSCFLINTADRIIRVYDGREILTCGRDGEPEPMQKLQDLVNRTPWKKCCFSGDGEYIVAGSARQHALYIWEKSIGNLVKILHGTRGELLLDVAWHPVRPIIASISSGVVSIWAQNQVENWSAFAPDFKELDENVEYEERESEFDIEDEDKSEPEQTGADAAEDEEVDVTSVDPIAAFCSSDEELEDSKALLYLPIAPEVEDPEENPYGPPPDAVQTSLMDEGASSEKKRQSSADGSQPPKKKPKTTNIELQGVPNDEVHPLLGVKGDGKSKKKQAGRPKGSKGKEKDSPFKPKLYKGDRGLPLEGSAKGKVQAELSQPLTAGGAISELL

[2] = target: T3, MLL1 SET domain (MLL^3745) (Homo sapiens, UniProt Q03164); assay: [3H]methyl transfer to H3 peptide, streptavidin pull-down, liquid scintillation counting; assay type: biochemical; conditions: histone H3 peptide (1-20)-GGK-biotin 500 μM fixed; 7 μM MLL1; 0-100 μM labelled compound; assay buffer pH 8.5, 15 °C; construct of MLL1 not stated for this assay; read-out: apparent Km
T3 construct: gene KMT2A; C-terminal Win motif + SET domain, residues 3745-3969, 26 kDa, expressed in E. coli as GST fusion
T3 sequence (Q03164 3745-3969): as the sequence (Q03164 3745-3969) above

WRAD = target: T4, WRAD (Homo sapiens, UniProt Q15291+Q9UBL3); conditions: labelled compound, no MLL1
T4 construct: gene ASH2L
T4 sequence (Q9C005 whole entry): as the sequence (Q9C005 whole entry, the tested form may be a part) above
T4 sequence (Q15291 whole entry): as the sequence (Q15291 whole entry, further chain, the tested form may be a part) above
T4 sequence (Q9UBL3 whole entry): as the sequence (Q9UBL3 whole entry, further chain, the tested form may be a part) above

C[S+](CC[C@H](N)C(=O)O)C[C@H]1O[C@@H](n2cnc3c(N)ncnc32)[C@H](O)[C@@H]1O (stereo partly shown) [AdoMet]
[3H]methyl transfer (automethylation and H3 methylation), SDS-PAGE fluorography (MBP-Trithorax SET domain): MBP-Trithorax SET domain is enzymatically active and undergoes automethylation in the absence of histone H3
[3H]methyl transfer to Ash2L, SDS-PAGE fluorography [1]: Ash2L methylation is dependent on the catalytic activity of the MLL1 SET domain
Km [2]: 10.4 ± 3.1 µM
[3H]methyl transfer to histone H3 peptide, SDS-PAGE fluorography (WRAD): despite significant histone H3 methylation by WRAD, no Ash2L methylation was observed
